From ChEMBL document CHEMBL2385069, “Thiourea derivatives incorporating a hippuric acid moiety: synthesis and evaluation of antibacterial and antifungal activities” (2013)
≈ marks a conversion by molar mass, not a printed value.

Experiments:
Candida albicans [1] = test: Antifungal activity against Candida albicans NRRLY-477 assessed as diameter of inhibition zone at 1 mg/ml after 24 hrs by agar well diffusion method; type: functional; settings: NRRLY-477, 24 h, read-out: DIZ
Proteus vulgaris [2] = test: Antibacterial activity against Proteus vulgaris assessed as diameter of inhibition zone at 1 mg/ml after 24 hrs by agar well diffusion method; type: functional; settings: read-out: DIZ
Escherichia coli [3] = test: Antibacterial activity against Escherichia coli ATCC 25922 after 24 hrs by two fold serial dilution technique; type: functional; settings: ATCC 25922, 24 h
Pseudomonas aeruginosa [4] = test: Antibacterial activity against Pseudomonas aeruginosa ATCC 27953 assessed as diameter of inhibition zone at 1 mg/ml after 24 hrs by agar well diffusion method; type: functional; settings: ATCC 27953, 24 h, read-out: DIZ
Candida albicans [5] = test: Antifungal activity against Candida albicans NRRLY-477 after 24 hrs by two fold serial dilution technique; type: functional; settings: NRRLY-477, 24 h
Micrococcus luteus [6] = test: Antibacterial activity against Sarcina lutea after 24 hrs by two fold serial dilution technique; type: functional
Klebsiella pneumoniae [7] = test: Antibacterial activity against Klebsiella pneumoniae ATCC 13883 assessed as diameter of inhibition zone at 1 mg/ml after 24 hrs by agar well diffusion method; type: functional; settings: ATCC 13883, 24 h, read-out: DIZ
Klebsiella pneumoniae [8] = test: Antibacterial activity against Klebsiella pneumoniae ATCC 13883 after 24 hrs by two fold serial dilution technique; type: functional; settings: ATCC 13883, 24 h
Escherichia coli [9] = test: Antibacterial activity against Escherichia coli ATCC 25922 assessed as diameter of inhibition zone at 1 mg/ml after 24 hrs by agar well diffusion method; type: functional; settings: ATCC 25922, 24 h, read-out: DIZ
Priestia megaterium [10] = test: Antibacterial activity against Bacillus megaterium ATCC 9885 assessed as diameter of inhibition zone at 1 mg/ml after 24 hrs by agar well diffusion method; type: functional; settings: ATCC 9885, 24 h, read-out: DIZ
Staphylococcus aureus [11] = test: Antibacterial activity against Staphylococcus aureus ATCC 29213 assessed as diameter of inhibition zone at 1 mg/ml after 24 hrs by agar well diffusion method; type: functional; settings: ATCC 29213, 24 h, read-out: DIZ
Saccharomyces cerevisiae [12] = test: Antifungal activity against Saccharomyces cerevisiae assessed as diameter of inhibition zone at 1 mg/ml after 24 hrs by agar well diffusion method; type: functional; settings: read-out: DIZ
Micrococcus luteus [13] = test: Antibacterial activity against Sarcina lutea assessed as diameter of inhibition zone at 1 mg/ml after 24 hrs by agar well diffusion method; type: functional; settings: read-out: DIZ
Bacillus subtilis [14] = test: Antibacterial activity against Bacillus subtilis ATCC 6633 assessed as diameter of inhibition zone at 1 mg/ml after 24 hrs by agar well diffusion method; type: functional; settings: ATCC 6633, 24 h, read-out: DIZ
Bacillus subtilis [15] = test: Antibacterial activity against Bacillus subtilis ATCC 6633 after 24 hrs by two fold serial dilution technique; type: functional; settings: ATCC 6633, 24 h
Proteus vulgaris [16] = test: Antibacterial activity against Proteus vulgaris after 24 hrs by two fold serial dilution technique; type: functional
Priestia megaterium [17] = test: Antibacterial activity against Bacillus megaterium ATCC 9885 after 24 hrs by two fold serial dilution technique; type: functional; settings: ATCC 9885, 24 h
Saccharomyces cerevisiae [18] = test: Antifungal activity against Saccharomyces cerevisiae after 24 hrs by two fold serial dilution technique; type: functional
Pseudomonas aeruginosa [19] = test: Antibacterial activity against Pseudomonas aeruginosa ATCC 27953 after 24 hrs by two fold serial dilution technique; type: functional; settings: ATCC 27953, 24 h
Staphylococcus aureus [20] = test: Antibacterial activity against Staphylococcus aureus ATCC 29213 after 24 hrs by two fold serial dilution technique; type: functional; settings: ATCC 29213, 24 h
Candida albicans [21] = test: Ratio of ketoconazole MIC to compound MIC for Candida albicans NRRLY-477; type: functional
Bacillus subtilis [22] = test: Ratio of Ciprofloxacin MIC to compound MIC for Bacillus subtilis ATCC 6633; type: functional
Staphylococcus aureus [23] = test: Ratio of Ciprofloxacin MIC to compound MIC for Staphylococcus aureus ATCC 29213; type: functional
Pseudomonas aeruginosa [24] = test: Ratio of Ciprofloxacin MIC to compound MIC for Pseudomonas aeruginosa ATCC 27953; type: functional
Klebsiella pneumoniae [25] = test: microbe, parasite or virus in culture; settings: ATCC 13883, 24 h, read-out: DIZ
Description: Antibacterial activity against Klebsiella pneumoniae ATCC 13883 assessed as diameter of inhibition zone at 0.5 mg/ml after 24 hrs by agar well diffusion method

Staphylococcus aureus [26] = test: microbe, parasite or virus in culture; settings: ATCC 29213, 24 h, read-out: DIZ
Description: Antibacterial activity against Staphylococcus aureus ATCC 29213 assessed as diameter of inhibition zone at 0.5 mg/ml after 24 hrs by agar well diffusion method

Pseudomonas aeruginosa [27] = test: microbe, parasite or virus in culture; settings: ATCC 27953, 24 h, read-out: DIZ
Description: Antibacterial activity against Pseudomonas aeruginosa ATCC 27953 assessed as diameter of inhibition zone at 0.5 mg/ml after 24 hrs by agar well diffusion method

Bacillus subtilis [28] = test: microbe, parasite or virus in culture; settings: ATCC 6633, 24 h, read-out: DIZ
Description: Antibacterial activity against Bacillus subtilis ATCC 6633 assessed as diameter of inhibition zone at 0.5 mg/ml after 24 hrs by agar well diffusion method

Micrococcus luteus [29] = test: Antibacterial activity against Sarcina lutea assessed as diameter of inhibition zone at 0.5 mg/ml after 24 hrs by agar well diffusion method; type: functional; settings: read-out: DIZ
Proteus vulgaris [30] = test: Antibacterial activity against Proteus vulgaris assessed as diameter of inhibition zone at 0.5 mg/ml after 24 hrs by agar well diffusion method; type: functional; settings: read-out: DIZ
Priestia megaterium [31] = test: Antibacterial activity against Bacillus megaterium ATCC 9885 assessed as diameter of inhibition zone at 0.5 mg/ml after 24 hrs by agar well diffusion method; type: functional; settings: ATCC 9885, 24 h, read-out: DIZ
Saccharomyces cerevisiae [32] = test: Antifungal activity against Saccharomyces cerevisiae assessed as diameter of inhibition zone at 0.5 mg/ml after 24 hrs by agar well diffusion method; type: functional; settings: read-out: DIZ
Candida albicans [33] = test: Antifungal activity against Candida albicans NRRLY-477 assessed as diameter of inhibition zone at 0.5 mg/ml after 24 hrs by agar well diffusion method; type: functional; settings: NRRLY-477, 24 h, read-out: DIZ

SMILES | MIC (Escherichia coli [3]) [µg/mL] | MIC (Candida albicans [5]) [µg/mL] | MIC (Micrococcus luteus [6]) [µg/mL] | MIC (Klebsiella pneumoniae [8]) [µg/mL] | MIC (Bacillus subtilis [15]) [µg/mL] | MIC (Proteus vulgaris [16]) [µg/mL] | MIC (Priestia megaterium [17]) [µg/mL] | MIC (Saccharomyces cerevisiae [18]) [µg/mL] | MIC (Pseudomonas aeruginosa [19]) [µg/mL] | MIC (Staphylococcus aureus [20]) [µg/mL] | zone of inhibition at 1000 µg/mL (Candida albicans [1]) [mm] | zone of inhibition at 1000 µg/mL (Proteus vulgaris [2]) [mm] | zone of inhibition at 1000 µg/mL (Pseudomonas aeruginosa [4]) [mm] | zone of inhibition at 1000 µg/mL (Klebsiella pneumoniae [7]) [mm] | zone of inhibition at 1000 µg/mL (Escherichia coli [9]) [mm] | zone of inhibition at 1000 µg/mL (Priestia megaterium [10]) [mm] | zone of inhibition at 1000 µg/mL (Staphylococcus aureus [11]) [mm] | zone of inhibition at 1000 µg/mL (Saccharomyces cerevisiae [12]) [mm] | zone of inhibition at 1000 µg/mL (Micrococcus luteus [13]) [mm] | zone of inhibition at 1000 µg/mL (Bacillus subtilis [14]) [mm] | further results
O=C(O)CNC(=O)c1ccc(NC(=S)Nc2cccc(Br)c2)cc1 | 6.25 (≈ 15.3 µM) | 3.12 (≈ 7.64 µM) | 12.5 (≈ 30.6 µM) | 6.25 (≈ 15.3 µM) | 3.12 (≈ 7.64 µM) | 6.25 (≈ 15.3 µM) | 3.12 (≈ 7.64 µM) | 6.25 (≈ 15.3 µM) | 12.5 (≈ 30.6 µM) | 6.25 (≈ 15.3 µM) | 30 | 24 | 22 | 30 | 27 | 32 | 31 | 28 | 20 | 30 | Ratio (Candida albicans [21]): 2; Ratio (Bacillus subtilis [22]): 2
Nc1n[nH]c(NC(=S)Nc2ccc(C(=O)NCC(=O)O)cc2)c1/N=N/c1ccc(Cl)cc1 | 6.25 (≈ 13.2 µM) | 3.12 (≈ 6.6 µM) | 12.5 (≈ 26.4 µM) | 12.5 (≈ 26.4 µM) | 3.12 (≈ 6.6 µM) | 6.25 (≈ 13.2 µM) | 6.25 (≈ 13.2 µM) | 12.5 (≈ 26.4 µM) | 12.5 (≈ 26.4 µM) | 6.25 (≈ 13.2 µM) | 30 | 28 | 28 | 22 | 28 | 27 | 28 | 25 | 30 | 32 | Ratio (Candida albicans [21]): 2; Ratio (Bacillus subtilis [22]): 2
O=C(O)c1cn(C2CC2)c2cc(N3CCNCC3)c(F)cc2c1=O [CIPROFLOXACIN] | 12.5 (≈ 37.7 µM) |  | 12.5 (≈ 37.7 µM) | 12.5 (≈ 37.7 µM) | 6.25 (≈ 18.9 µM) | 12.5 (≈ 37.7 µM) | 6.25 (≈ 18.9 µM) |  |  |  |  |  |  |  |  |  |  |  |  |  | zone of inhibition at 500 µg/mL (Klebsiella pneumoniae [25]): 25 mm; zone of inhibition at 500 µg/mL (Staphylococcus aureus [26]): 20 mm; zone of inhibition at 500 µg/mL (Pseudomonas aeruginosa [27]): 24 mm; zone of inhibition at 500 µg/mL (Bacillus subtilis [28]): 22 mm; zone of inhibition at 500 µg/mL (Micrococcus luteus [29]): 20 mm; zone of inhibition at 500 µg/mL (Proteus vulgaris [30]): 23 mm; zone of inhibition at 500 µg/mL (Priestia megaterium [31]): 24 mm
CC(=O)N1CCN(c2ccc(OCC3COC(Cn4ccnc4)(c4ccc(Cl)cc4Cl)O3)cc2)CC1 (stereo not given) [KETOCONAZOLE] |  | 6.25 (≈ 11.8 µM) |  |  |  |  |  | 3.12 (≈ 5.87 µM) |  |  |  |  |  |  |  |  |  |  |  |  | zone of inhibition at 500 µg/mL (Saccharomyces cerevisiae [32]): 23 mm; zone of inhibition at 500 µg/mL (Candida albicans [33]): 22 mm

The next lines start with results.

MIC (Escherichia coli [3]) [µg/mL] | MIC (Candida albicans [5]) [µg/mL] | MIC (Micrococcus luteus [6]) [µg/mL] | MIC (Klebsiella pneumoniae [8]) [µg/mL] | MIC (Bacillus subtilis [15]) [µg/mL] | MIC (Proteus vulgaris [16]) [µg/mL] | MIC (Priestia megaterium [17]) [µg/mL] | MIC (Saccharomyces cerevisiae [18]) [µg/mL] | MIC (Pseudomonas aeruginosa [19]) [µg/mL] | MIC (Staphylococcus aureus [20]) [µg/mL] | SMILES | zone of inhibition at 1000 µg/mL (Candida albicans [1]) [mm] | zone of inhibition at 1000 µg/mL (Proteus vulgaris [2]) [mm] | zone of inhibition at 1000 µg/mL (Pseudomonas aeruginosa [4]) [mm] | zone of inhibition at 1000 µg/mL (Klebsiella pneumoniae [7]) [mm] | zone of inhibition at 1000 µg/mL (Escherichia coli [9]) [mm] | zone of inhibition at 1000 µg/mL (Priestia megaterium [10]) [mm] | zone of inhibition at 1000 µg/mL (Staphylococcus aureus [11]) [mm] | zone of inhibition at 1000 µg/mL (Saccharomyces cerevisiae [12]) [mm] | zone of inhibition at 1000 µg/mL (Micrococcus luteus [13]) [mm] | zone of inhibition at 1000 µg/mL (Bacillus subtilis [14]) [mm] | further results
12.5 (≈ 36 µM) | 12.5 (≈ 36 µM) | 12.5 (≈ 36 µM) | 12.5 (≈ 36 µM) | 12.5 (≈ 36 µM) | 12.5 (≈ 36 µM) | 12.5 (≈ 36 µM) | 25 (≈ 72 µM) | 12.5 (≈ 36 µM) | 50 (≈ 144 µM) | O=C(O)CNC(=O)c1ccc(NC(=S)Nc2cccc(F)c2)cc1 | 22 | 25 | 21 | 23 | 20 | 27 | 20 | 17 | 20 | 18 | 
6.25 (≈ 12.8 µM) | 12.5 (≈ 25.7 µM) | 12.5 (≈ 25.7 µM) | 12.5 (≈ 25.7 µM) | 12.5 (≈ 25.7 µM) | 12.5 (≈ 25.7 µM) | 12.5 (≈ 25.7 µM) | 3.12 (≈ 6.41 µM) | 3.12 (≈ 6.41 µM) | 3.12 (≈ 6.41 µM) | O=C(O)CNC(=O)c1ccc(NC(=S)Nc2ccc(S(=O)(=O)Nc3ncccn3)cc2)cc1 | 25 | 21 | 34 | 17 | 32 | 27 | 32 | 30 | 25 | 26 | Ratio (Staphylococcus aureus [23]): 2; Ratio (Pseudomonas aeruginosa [24]): 4
6.25 (≈ 15.3 µM) | 3.12 (≈ 7.64 µM) | 12.5 (≈ 30.6 µM) | 12.5 (≈ 30.6 µM) | 3.12 (≈ 7.64 µM) | 12.5 (≈ 30.6 µM) | 3.12 (≈ 7.64 µM) | 12.5 (≈ 30.6 µM) | 12.5 (≈ 30.6 µM) | 6.25 (≈ 15.3 µM) | O=C(O)CNC(=O)c1ccc(NC(=S)NNS(=O)(=O)c2ccccc2)cc1 | 32 | 20 | 23 | 25 | 29 | 31 | 32 | 24 | 20 | 30 | Ratio (Candida albicans [21]): 2; Ratio (Bacillus subtilis [22]): 2
